Source: ChEMBL document CHEMBL1155037, “BACE1 inhibitory effects of lavandulyl flavanones from Sophora flavescens” (Bioorg Med Chem, 2008)
Activity calls are given as the source filed them. No cut-off for these calls is given here.

What was measured:
[1] = molecular target: T1, Beta-secretase 1 (Homo sapiens, UniProt P56817); experiment: Inhibition of human BACE1 expressed in HEK293 cells assessed as reduction in soluble APPalpha level after 4 hrs by Western blot analysis; format: cell-based
[2] = molecular target: T1, Beta-secretase 1; experiment: Inhibition of human BACE1 expressed in HEK293 cells assessed as reduction in soluble APPbeta level after 4 hrs by Western blot analysis; format: cell-based; set-up: concentration or dose not given beside the values
[3] = molecular target: T1, Beta-secretase 1; experiment: Inhibition of human BACE1

T1 sequence (P56817 whole entry): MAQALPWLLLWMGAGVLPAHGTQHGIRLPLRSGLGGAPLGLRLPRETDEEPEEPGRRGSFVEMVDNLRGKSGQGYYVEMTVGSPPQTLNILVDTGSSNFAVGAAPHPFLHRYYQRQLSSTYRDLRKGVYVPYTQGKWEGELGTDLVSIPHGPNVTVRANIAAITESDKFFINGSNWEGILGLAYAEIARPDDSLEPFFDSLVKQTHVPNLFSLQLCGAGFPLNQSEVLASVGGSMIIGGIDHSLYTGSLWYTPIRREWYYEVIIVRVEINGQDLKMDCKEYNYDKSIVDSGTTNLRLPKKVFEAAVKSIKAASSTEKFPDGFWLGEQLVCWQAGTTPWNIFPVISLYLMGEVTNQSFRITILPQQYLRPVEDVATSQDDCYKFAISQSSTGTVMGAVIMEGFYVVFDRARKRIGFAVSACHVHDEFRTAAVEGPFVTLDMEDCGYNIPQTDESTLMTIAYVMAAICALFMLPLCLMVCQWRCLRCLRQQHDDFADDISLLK

Compound	Activity [1]	Activity [2]	IC50 [3]	Ki [3]
C=C(C)[C@H](CC=C(C)C)Cc1c(O)cc(OC)c2c1O[C@H](c1ccc(O)cc1OC)CC2=O	Active	51.1%	6.7 µM	10.6 µM
COc1cc(O)c(CC=C(C)C)c2c1C(=O)CC(c1ccc(O)cc1)O2 (stereo not drawn) [ISOXANTHOHUMOL]			27.7 µM	
C=C(C)[C@H](CCC(C)(C)O)Cc1c(O)cc(OC)c2c1O[C@H](c1ccc(O)cc1O)CC2=O [KURARINOL]			39.2 µM	
C=C(C)C(CC=C(C)C)Cc1c(O)cc(OC)c2c1O[C@H](c1ccc(O)cc1O)CC2=O (stereo partly drawn) [KURARINONE]	Active	51.9%	3.3 µM	7.2 µM
C=C(C)[C@H](CC=C(C)C)Cc1c(O)cc(O)c2c1O[C@H](c1ccccc1O)CC2=O [KUSHENOL A]	Active	61.8%	2.6 µM	3 µM
C=C(C)[C@H](CCC(C)(C)O)Cc1c(O)cc(O)c2c1O[C@H](c1ccccc1O)CC2=O [KUSHENOL T]			36.8 µM	
C=C(C)[C@H](CC=C(C)C)Cc1c(O)cc(O)c2c1O[C@H](c1ccc(O)cc1OC)CC2=O [LEACHIANONE A]	Dose-dependent effect	40.7%	8.4 µM	3.9 µM
C=C(C)[C@H](CC=C(C)C)Cc1c(O)cc(O)c2c1O[C@H](c1ccc(O)cc1O)CC2=O [SOPHORAFLAVANONE G]	Active	56%	5.2 µM	1.1 µM
